The results in this text go back to patent US9687479B2, “Multisubstituted aromatic compounds as serine protease inhibitors” (VERSEON CORPORATION, priority 2013, dated 2017).

The structures appear in SMILES notation. pIC50: −log10 of the molar value.

One may read the pIC50 as −log10 of the IC50, conventionally taken in molar units.

This test has as its target Human thrombin (Homo sapiens (Human), UniProt P00734). The test can be described thus: Thrombin protease activity inhibition assay (chromogenic substrate S-2238). Conditions: 3 nM thrombin, 125 μM S-2238, 10 min pre-incubation, RT. It is filed as biochemical. Here is the method:
The thrombin activity reported herein (e.g., Table A) was obtained as follows. […] Thrombin was assayed in buffer containing 0.05 M Tris (pH 7.4), 0.015 M NaCl and 0.01% PEG-8000. The final concentration of enzyme used was 3 nM thrombin. […] All assays were performed in 96-well microtiter plates at room temperature (RT). […] Inhibitor IC50 values were determined by adding test compound as ten point, three-fold serial dilutions in buffer solution, as known in the art. The plate was read at 10 minutes after substrate addition. The IC50 was calculated by plotting the percent (%) inhibition against compound concentration and fitting the data to a constrained four parameter sigmoidal curve, as known in the art.
With `O=C(c1ccccc1)n1nc(-c2cccn(Cc3ccoc3)c2=O)cc1NCc1ccc(Cl)s1` [Cmpd 64, 3-(1-benzoyl-5-[(5-chlorothiophen-2-yl)methyl]amino-1H-pyrazol-3-yl)-1-(furan-3-ylmethyl)-1,2-dihydropyridin-2-one], the pIC50 was more than 7.00.
The molecule `O=C(c1ccccc1)n1nc(-c2cccn(Cc3cccnn3)c2=O)cc1NCc1ccc(Cl)s1` [Cmpd 65, 3-(1-benzoyl-5-[(5-chlorothiophen-2-yl)methyl]amino-1H-pyrazol-3-yl)-1-(pyridazin-3-ylmethyl)-1,2-dihydropyridin-2-one] showed a pIC50 of more than 7.00.
Regarding `O=C(c1ccccc1)n1nc(-c2cccn(Cc3ccccn3)c2=O)cc1NCc1ccc(Cl)s1` [Cmpd 66, 3-(1-benzoyl-5-[(5-chlorothiophen-2-yl)methyl]amino-1H-pyrazol-3-yl)-1-(pyridin-2-ylmethyl)-1,2-dihydropyridin-2-one], the pIC50 was more than 7.00.
As to `O=C(c1ccccc1)n1nc(-c2cccn(Cc3cccnc3)c2=O)cc1NCc1ccc(Cl)s1` [Cmpd 67, 3-(1-benzoyl-5-[(5-chlorothiophen-2-yl)methyl]amino-1H-pyrazol-3-yl)-1-(pyridin-3-ylmethyl)-1,2-dihydropyridin-2-one], the pIC50 was more than 7.00.
`O=C(c1ccccc1)n1nc(-c2cccn(Cc3ccncc3)c2=O)cc1NCc1ccc(Cl)s1` [Cmpd 68, 3-(1-benzoyl-5-[(5-chlorothiophen-2-yl)methyl]amino-1H-pyrazol-3-yl)-1-(pyridin-4-ylmethyl)-1,2-dihydropyridin-2-one] gave a negative logarithm of the IC50 (pIC50) of less than 4.00.
The molecule `O=C(c1ccccc1)n1nc(-c2cccn(Cc3ncccn3)c2=O)cc1NCc1ccc(Cl)s1` [Cmpd 69, 3-(1-benzoyl-5-[(5-chlorothiophen-2-yl)methyl]amino-1H-pyrazol-3-yl)-1-(pyrimidin-2-ylmethyl)-1,2-dihydropyridin-2-one] showed a pIC50 of more than 7.00.
Then `O=C(c1ccccc1)n1nc(-c2cccn(Cc3cccs3)c2=O)cc1NCc1ccc(Cl)s1` [Cmpd 70, 3-(1-benzoyl-5-[(5-chlorothiophen-2-yl)methyl]amino-1H-pyrazol-3-yl)-1-(thiophen-2-ylmethyl)-1,2-dihydropyridin-2-one], with more than 7.00.
Then `O=C(c1ccccc1)n1nc(-c2cccn(Cc3ccsc3)c2=O)cc1NCc1ccc(Cl)s1` [Cmpd 71, 3-(1-benzoyl-5-[(5-chlorothiophen-2-yl)methyl]amino-1H-pyrazol-3-yl)-1-(thiophen-3-ylmethyl)-1,2-dihydropyridin-2-one], with more than 7.00; and `O=C(c1ccccc1)n1nc(-c2cccn(Cc3ccccc3)c2=O)cc1NCc1ccc(Cl)s1` [Cmpd 72, 3-(1-benzoyl-5-[(5-chlorothiophen-2-yl)methyl]amino-1H-pyrazol-3-yl)-1-benzyl-1,2-dihydropyridin-2-one], with more than 7.00; and `O=C(c1ccco1)n1nc(-c2cccn(Cc3ccccn3)c2=O)cc1NCc1ccc(F)cc1` [Cmpd 74, 3-(5-[(4-fluorophenyl)methyl]amino-1-[(furan-2-yl)carbonyl]-1H-pyrazol-3-yl)-1-(pyridin-2-ylmethyl)-1,2-dihydropyridin-2-one], with more than 7.00.
The result for `COCCn1cccc(-c2cc(NCc3ccc(Cl)s3)n(C(=O)C(C)(C)C)n2)c1=O` [Cmpd 75, 3-(5-[(5-chlorothiophen-2-yl)methyl]amino-1-(2,2-dimethylpropanoyl)-1H-pyrazol-3-yl)-1-(2-methoxyethyl)-1,2-dihydropyridin-2-one] reads more than 7.00; that for `CC(C)(C)C(=O)n1nc(-c2cccn(CCc3ccccc3)c2=O)cc1NCc1ccc(Cl)s1` [Cmpd 76, 3-(5-[(5-chlorothiophen-2-yl)methyl]amino-1-(2,2-dimethylpropanoyl)-1H-pyrazol-3-yl)-1-(2-phenylethyl)-1,2-dihydropyridin-2-one], more than 7.00.
